In paper PMC5971061, “Differential Effects of Linkers on the Activity of Amphiphilic Tobramycin Antifungals” (Molecules : A Journal of Synthetic Chemistry and Natural …, 2018):
Converted amounts (≈) assume the structure as drawn. Like-named read-outs stand apart in the source and are kept apart here.

Assays:
[1] = test system: Candida glabrata clinical isolate CG3; test: MIC, broth microdilution (CLSI M27-A3), CG3; format: cell-based; conditions: Nakaseomyces glabratus; MIC-0, CG3, 35 °C 48 h
Method: (§1) The final concentrations of compounds 3, 4, 7a, 7b, 9, and 16, as well as that of TOB tested in this study ranged from 0.24–62.5 μg/mL. CAS was used as a positive control and the final concentrations tested for CAS ranged from 0.03–31.3 μg/mL. Briefly, overnight yeast cultures were grown in yeast peptone dextrose (YPD) broth and the cell density was adjusted to an OD600 of 0.12 (~1 × 10^6 CFU/mL) by using a spectrophotometer. Yeast cell suspensions were further diluted to achieve 1–5 × 10^3 CFU/mL in RPMI 1640 medium, and 100 μL of these yeast cells was added to 96-well microtiter plates containing RPMI 1640 medium and titrated compounds. Each test was performed in triplicate. The plates were incubated at 35 °C for 48 h.

[2] = test system: murine red blood cells (mRBCs); test: Hemolytic activity assay; format: cell-based; conditions: at 3.9 μg/mL, 2- to 8-fold their MIC values against the three C. neoformans clinical isolates
How it was run: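 Murine RBCs (5 × 10^6 erythrocytes/mL final) incubated with two-fold serial dilutions of compound (0.48–62.5 μg/mL final) in PBS for 1 h at 37 °C. Hemolysis by absorbance, expressed as % relative to 1% Triton X-100 after blank (PBS) subtraction.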

[3] = test system: Aspergillus flavus ATCC MYA-3631 (strain K); test: MIC, filamentous fungi (CLSI M38-A2), strain K; format: cell-based; conditions: MIC-0, strain K, 35 °C 72 h
Method: (§2) The spores were harvested from sporulating cultures growing on potato dextrose agar (PDA) by filtration through sterile glass wool and enumerated by using a hemocytometer (Hausser Scientific, Horsham, PA, USA) to obtain the desired inoculum size. Two-fold serial dilutions of compounds 3, 4, 7a, 7b, 9, and 16, as well as CAS and TOB were made in sterile 96-well microtiter plates to obtain the final concentration range of 0.24–62.5 μg/mL for TOB and TOB derivatives as well as 0.03–31.3 μg/mL for CAS in the RPMI 1640 medium. The spore suspensions were added to the wells to afford a final concentration of 5 × 10^5 spores/mL. The plates were incubated at 35 °C for 72 h. […] Each test was performed in triplicate.

[4] = test system: BEAS-2B cell line; test: In vitro cytotoxicity assay (resazurin), BEAS-2B; format: cell-based, human; conditions: 24 h; for IC50: Homo sapiens, resazurin
Method: (§3) Mammalian cytotoxicity assays were performed as previously described with minor modifications. The normal human bronchial epithelial cells BEAS-2B and the human lung carcinoma epithelial cells A549 were grown in DMEM containing 10% fetal bovine serum (FBS) and 1% antibiotics. The confluent cells were then trypsinized with 0.05% trypsin and 0.53 mM EDTA, and resuspended in fresh DMEM medium. The cells were transferred into 96-well microtiter plates at a density of 3000 cells/well and were grown for 24 h. The following day, the medium was replaced by a fresh culture medium containing serially diluted compounds 3, 4, 7a, 7b, and 9, as well as the parent drug TOB at final concentrations of 0.48–62.5 μg/mL or sterile ddH2O (negative control). The cells were incubated for an additional 24 h at 37 °C with 5% CO2 in a humidified incubator. To evaluate cell survival, each well was treated with 10 μL (25 μg/mL) of resazurin sodium salt (Sigma-Aldrich) for 4–6 h. Metabolically active cells can convert resazurin (blue) to the highly fluorescent dye resorufin (pink), which was detected at λ560 excitation and λ590 emission wavelengths by using a SpectraMax M5 plate reader. Triton X-100® (1% v/v) gave the complete loss of cell viability and was used as the positive control. The percentage survival rates were calculated by using the following formula: % cell survival = [(fluorescence of sample) − (fluorescence of blank)] × 100/[(fluorescence of negative control) − (fluorescence of blank)].

[5] = test system: Aspergillus terreus ATCC MYA-3633 (strain M); test: MIC, filamentous fungi (CLSI M38-A2), strain M; format: cell-based; conditions: MIC-0, strain M, 35 °C 72 h
Method: as §2

[6] = test system: Candida glabrata clinical isolate CG2; test: MIC, broth microdilution (CLSI M27-A3), CG2; format: cell-based; conditions: Nakaseomyces glabratus; MIC-0, CG2, 35 °C 48 h
Method: as §1

[7] = test system: nine non-albicans Candida strains (H-J, CG1-3, CP1-3); test: MIC across the panel of nine non-albicans Candida strains; format: cell-based, Candida glabrata, Candida krusei, Candida parapsilosis
Method: as §1

[8] = test system: Candida parapsilosis clinical isolate CP3; test: MIC, broth microdilution (CLSI M27-A3), CP3; format: cell-based; conditions: MIC-0, CP3, 35 °C 48 h
Method: as §1

[9] = test system: A549 cell line; test: In vitro cytotoxicity assay (resazurin), A549; format: cell-based, human; conditions: for IC50: Homo sapiens, A549, 24 h, resazurin
Method: as §3

[10] = Aspergillus flavus, 72 h, read-out: MIC

| SMILES | MIC [1] | mRBCs lysed [2] | MIC [3, 10] | MIC [3] | IC50 [4] | MIC [5] | MIC [6] | MIC [7] | MIC [8] | toxicity (in words) ([4]; 0.48-62.5 μg/mL) | toxicity (in words) ([9]; A549, 0.48-62.5 μg/mL, 24 h) | IC50 [9] |
| --- | --- | --- | --- | --- | --- | --- | --- | --- | --- | --- | --- | --- |
| CCCCCCCCCCCCSC[C@H]1O[C@H](O[C@@H]2[C@@H](O)[C@H](O[C@H]3O[C@H](CN)[C@@H](O)C[C@H]3N)[C@@H](N)C[C@H]2N)[C@H](O)[C@@H](N)[C@@H]1O [Compound 3, O-3-Amino-3-deoxy-6-S-dodecyl-6-thio-α-D-glucopyranosyl-(1→6)-O-[2,6-diamino-2,3,6-trideoxy-α-D-ribo-hexopyranosyl-(1→4)]-2-deoxy-D-streptamine] | 15.6 µg/mL (≈ 23.9 µM) | up to 13% | 7.8 to 31.3 µg/mL (≈ 12 to 48 µM) | 15.6 µg/mL (≈ 23.9 µM) | 31.3 to 62.5 µg/mL (≈ 48 to 95.9 µM) | > 62.5 µg/mL | 7.8 µg/mL (≈ 12 µM) | 3.9 to 15.6 µg/mL (≈ 5.98 to 23.9 µM) | 15.6 µg/mL (≈ 23.9 µM) | – | – | – |
| NC[C@H]1O[C@H](O[C@H]2[C@H](O)[C@@H](O[C@H]3O[C@H](CO)[C@@H](O)[C@H](N)[C@H]3O)[C@H](N)C[C@@H]2N)[C@H](N)C[C@@H]1O [TOB, tobramycin] | > 62.5 µg/mL | – | > 62.5 µg/mL | – | – | > 62.5 µg/mL | > 62.5 µg/mL | > 62.5 µg/mL | > 62.5 µg/mL | little to no toxicity | little to no toxicity | – |
| CCCCCCCCCCc1cn(C[C@H]2O[C@H](O[C@@H]3[C@@H](O)[C@H](O[C@H]4O[C@H](CN)[C@@H](O)C[C@H]4N)[C@@H](N)C[C@H]3N)[C@H](O)[C@@H](N)[C@@H]2O)nn1 [Compound 7a, O-3-Amino-3,6-dideoxy-6-(4-decyl-1H-1,2,3-triazol-1-yl)-α-D-glucopyranosyl-(1→6)-O-[2,6-diamino-2,3,6-trideoxy-α-D-ribo-hexopyranosyl-(1→4)]-2-deoxy-D-streptamine] | 15.6 µg/mL (≈ 23.7 µM) | up to 13% | – | – | > 62.5 µg/mL | > 62.5 µg/mL | 15.6 µg/mL (≈ 23.7 µM) | 15.6 to 62.5 µg/mL (≈ 23.7 to 94.9 µM) | 31.3 µg/mL (≈ 47.5 µM) | – | – | > 62.5 µg/mL |
| CCCCCCCCCCCCS(=O)(=O)C[C@H]1O[C@H](O[C@@H]2[C@@H](O)[C@H](O[C@H]3O[C@H](CN)[C@@H](O)C[C@H]3N)[C@@H](N)C[C@H]2N)[C@H](O)[C@@H](N)[C@@H]1O [Compound 4, O-3-Amino-3,6-dideoxy-6-(dodecylsulfonyl)-α-D-glucopyranosyl-(1→6)-O-[2,6-diamino-2,3,6-trideoxy-α-D-ribo-hexopyranosyl-(1→4)]-2-deoxy-D-streptamine] | 3.9 µg/mL (≈ 5.7 µM) | up to 13% | – | – | > 62.5 µg/mL | 62.5 µg/mL (≈ 91.4 µM) | 3.9 µg/mL (≈ 5.7 µM) | 3.9 to 15.6 µg/mL (≈ 5.7 to 22.8 µM) | 7.8 µg/mL (≈ 11.4 µM) | – | – | > 62.5 µg/mL |
| CCCCCCCCCCCCc1cn(C[C@H]2O[C@H](O[C@@H]3[C@@H](O)[C@H](O[C@H]4O[C@H](CN)[C@@H](O)C[C@H]4N)[C@@H](N)C[C@H]3N)[C@H](O)[C@@H](N)[C@@H]2O)nn1 [Compound 7b, O-3-Amino-3,6-dideoxy-6-(4-dodecyl-1H-1,2,3-triazol-1-yl)-α-D-glucopyranosyl-(1→6)-O-[2,6-diamino-2,3,6-trideoxy-α-D-ribo-hexopyranosyl-(1→4)]-2-deoxy-D-streptamine] | 3.9 µg/mL (≈ 5.68 µM) | up to 13% | 7.8 to 31.3 µg/mL (≈ 11.4 to 45.6 µM) | 7.8 µg/mL (≈ 11.4 µM) | > 62.5 µg/mL | 62.5 µg/mL (≈ 91 µM) | 3.9 µg/mL (≈ 5.68 µM) | 1.95 to 7.8 µg/mL (≈ 2.84 to 11.4 µM) | 7.8 µg/mL (≈ 11.4 µM) | – | – | > 62.5 µg/mL |
| CCCCCCCCCCCC(=O)NC[C@H]1O[C@H](O[C@@H]2[C@@H](O)[C@H](O[C@H]3O[C@H](CN)[C@@H](O)C[C@H]3N)[C@@H](N)C[C@H]2N)[C@H](O)[C@@H](N)[C@@H]1O [Compound 9, O-3-Amino-3,6-dideoxy-6-[(1-oxododecyl)amino]-α-D-glucopyranosyl-(1→6)-O-[2,6-diamino-2,3,6-trideoxy-α-D-ribo-hexopyranosyl-(1→4)]-2-deoxy-D-streptamine] | 15.6 µg/mL (≈ 24 µM) | up to 13% | – | – | > 62.5 µg/mL | > 62.5 µg/mL | 15.6 µg/mL (≈ 24 µM) | 7.8 to 31.3 µg/mL (≈ 12 to 48.2 µM) | 31.3 µg/mL (≈ 48.2 µM) | – | – | > 62.5 µg/mL |
